Experimental data published in ChEMBL document CHEMBL4706552, “Discovery of 4-methyl-N-(4-((4-methylpiperazin- 1-yl)methyl)-3-(trifluoromethyl)phenyl)-3-((6-(pyridin-3-yl)-1H-pyrazolo[3,4-d]pyrimidin-4-yl)-oxy)benzamide as a potent inhibitor of RET and its gatekeeper mutant” (Eur J Med Chem, 2020).
Active and inactive are the calls of the source. The calls are words filed in the database; no cut-off is given here.

Assays:
HepG2 = test: Antiproliferative activity against human HepG2 cells at 3.3 uM measured after 48 hrs by MTS assay; assay type: functional; settings: read-out: GI
[1] = tested on: Kinesin-1 heavy chain/ Tyrosine-protein kinase receptor RET (Homo sapiens), P07949+P33176 [V804M]; test: Inhibition of KIF5B-RET V804M mutant fusion protein (unknown origin) expressed in mouse BaF3 cells assessed as reduction in RET autophosphorylation at 100 nM measured after 4 hrs by Western blot analysis; assay type: cell-based
[2] = Half life in Sprague-Dawley rat at 10 mg/kg, po; assay type: ADME, organism-based; settings: in vivo
BaF3 = test: Induction of apoptosis in KIF5B-RET fusion protein expressing mouse BaF3 cells implanted in BALB/c mouse assessed as increase in cleaved PARP level at 30 to 50 mg/kg, iv administered once daily for 7 days measured 4 hrs post last dose by Western blot analysis; assay type: functional, organism-based; settings: dose 30-50 mg/kg, time 7.0 day

For `Cc1ccc(C(=O)Nc2ccc(CN3CCN(C)CC3)c(C(F)(F)F)c2)cc1Oc1nc(-c2cccnc2)nc2[nH]ncc12`, which inhibition of growth at 3.3 µM (HepG2) is on record?
The inhibition of growth at 3.3 µM was 33%.

And the inhibition [1]?
The inhibition was “Dose-dependent effect”.

And the half-life [2]?
Its half-life is 7.59 h.

And the Activity (BaF3)?
Its Activity is “Active”.
